# ChEMBL document CHEMBL4152377, “Design and Activity of Specific Hypoxia-Inducible Factor-2α (HIF-2α) Inhibitors for the Treatment of Clear Cell Renal Cell Carcinoma: Discovery of Clinical Candidate ( S)-3-((2,2-Difluoro-1-hydroxy-7-(methylsulfonyl)-2,3-dihydro-1 H-inden-4-yl)oxy)-5-fluorobenzonitrile (PT2385)” (J Med Chem, 2018)
# pEC50, pIC50: −log10 of the molar value. Activity calls are given as the source filed them. The calls are words filed in the database; no cut-off is given here.
# Assays:
# [1] = biological target: T1, Endothelial PAS domain-containing protein 1 (Homo sapiens, UniProt Q99814)
# [2] = biological target: T1, Endothelial PAS domain-containing protein 1; remark: listed apart in the source
# Rattus norvegicus = assay: Drug level in Sprague-Dawley rat treated with 10 mg/kg, po (R)-3-((4-(Difluoromethyl)-2,2-difluoro-3-hydroxy-1,1-dioxido-2,3-dihydrobenzo[b]thiophen-5-yl)oxy)-5-fluorobenzonitrile assessed as compound formation by UPLC analysis; assay type: ADME, organism-based; conditions: in vivo
# [3] = Protein binding in mouse plasma at 10 uM after 4 hrs by LC-MS/MS analysis; assay type: ADME, cell-free; conditions: read-out: PPB (converted)
# [4] = Plasma concentration in mouse after 12 hrs; assay type: ADME, cell-free
# [5] = Intrinsic clearance in mouse liver microsomes at 1 uM measured up to 30 mins by LC-MS/MS analysis; assay type: ADME, microsome; conditions: read-out: CLH
# [6] = Apparent permeability across apical to basolateral side in MDCK-MDR1 cells at 1 uM after 1 hr by LC/MS/MS analysis; assay type: ADME, cell-based, Canis lupus familiaris; conditions: dog
# [7] = Clearance in CD1 mouse at 3 mg/kg, iv by UPLC analysis; assay type: ADME, organism-based; conditions: in vivo
# [8] = AUCt in CD1 mouse at 10 mg/kg, po by UPLC analysis; assay type: ADME, organism-based; conditions: in vivo
# [9] = Volume of distribution at steady state in CD1 mouse at 3 mg/kg, iv by UPLC analysis; assay type: ADME, organism-based; conditions: in vivo, read-out: Vdss
# [10] = Half life in CD1 mouse at 10 mg/kg, po by UPLC analysis; assay type: ADME, organism-based; conditions: in vivo
# [11] = Oral bioavailability in CD1 mouse at 10 mg/kg by UPLC analysis; assay type: ADME, organism-based; conditions: in vivo
# [12] = Clearance in Sprague-Dawley rat at 3 mg/kg, iv by UPLC analysis; assay type: ADME, organism-based; conditions: in vivo
# [13] = AUCt in Sprague-Dawley rat at 10 mg/kg, po via gavage by UPLC analysis; assay type: ADME, organism-based; conditions: in vivo
# [14] = Volume of distribution at steady state in Sprague-Dawley rat at 3 mg/kg, iv by UPLC analysis; assay type: ADME, organism-based; conditions: in vivo, read-out: Vdss
# [15] = Half life in Sprague-Dawley rat at 10 mg/kg, po via gavage by UPLC analysis; assay type: ADME, organism-based; conditions: in vivo
# [16] = Oral bioavailability in Sprague-Dawley rat at 10 mg/kg administered via gavage by UPLC analysis; assay type: ADME, organism-based; conditions: in vivo
# Mus musculus [17] = assay: In vivo inhibition of HIF-2alpha in SCID/Biege mouse xenografted with human 786-O cells assessed as reduction in CCND1 mRNA levels at 10 mg/kg, po bid for 3 days and measured after 12 hrs post last dose by qRT-PCR analysis; assay type: functional, organism-based
# Mus musculus [18] = assay: In vivo inhibition of HIF-2alpha in SCID/Biege mouse xenografted with human 786-O cells assessed as reduction in VEGFA mRNA levels at 10 mg/kg, po bid for 3 days and measured after 12 hrs post last dose by qRT-PCR analysis; assay type: functional, organism-based
# 786-0 [19] = assay: Antitumor activity against human 786-O cells xenografted in SCID/Biege mouse assessed as tumor regression at 10 mg/kg, po bid for 21 days; assay type: functional, organism-based
# Mus musculus [20] = assay: Toxicity in SCID/Biege mouse xenografted with human 786-O cells assessed as morbidity at 10 mg/kg, po bid for 21 days; assay type: organism-based; conditions: in vivo, 504 h
# Mus musculus [21] = assay: Toxicity in SCID/Biege mouse xenografted with human 786-O cells assessed as mortality at 10 mg/kg, po bid for 21 days; assay type: organism-based; conditions: in vivo, 504 h
# Mus musculus [22] = assay: Toxicity in SCID/Biege mouse xenografted with human 786-O cells assessed as effect on body weight at 10 mg/kg, po bid for 21 days; assay type: organism-based; conditions: in vivo, 504 h
# Mus musculus [23] = assay: Minimum drug level in SCID/Biege mouse xenografted with human 786-O cells at 10 mg/kg, po bid for 3 days and measured after 12 hrs post last dose by LC-MS/MS analysis; assay type: ADME, organism-based; conditions: in vivo
# 786-0 [24] = assay: In vivo inhibition of HIF-2alpha in SCID/Biege mouse xenografted with human 786-O cells assessed as reduction in tumor derived VEGFA protein levels at 10 mg/kg, po bid for 3 days and measured after 12 hrs post last dose by ELISA; assay type: functional, organism-based
# [25] = biological target: T1, Endothelial PAS domain-containing protein 1; assay: Antagonist activity at HIF-2alpha in human 786-O cells assessed as reduction in VEGFA concentration after 24 hrs by ELISA; assay type: cell-based
# [26] = Efflux ratio of apparent permeability in MDCK-MDR1 cells at 1 uM after 1 hr by LC/MS/MS analysis; assay type: ADME, cell-based, Canis lupus familiaris; conditions: dog
# [27] = biological target: T1, Endothelial PAS domain-containing protein 1; assay: Antagonist activity at HIF-2alpha in human 786-O cells assessed as free plasma adjusted EC50 for reduction in VEGFA concentration after 24 hrs by ELISA; assay type: cell-based
# T1 sequence (Q99814 whole entry, the tested form may be a part): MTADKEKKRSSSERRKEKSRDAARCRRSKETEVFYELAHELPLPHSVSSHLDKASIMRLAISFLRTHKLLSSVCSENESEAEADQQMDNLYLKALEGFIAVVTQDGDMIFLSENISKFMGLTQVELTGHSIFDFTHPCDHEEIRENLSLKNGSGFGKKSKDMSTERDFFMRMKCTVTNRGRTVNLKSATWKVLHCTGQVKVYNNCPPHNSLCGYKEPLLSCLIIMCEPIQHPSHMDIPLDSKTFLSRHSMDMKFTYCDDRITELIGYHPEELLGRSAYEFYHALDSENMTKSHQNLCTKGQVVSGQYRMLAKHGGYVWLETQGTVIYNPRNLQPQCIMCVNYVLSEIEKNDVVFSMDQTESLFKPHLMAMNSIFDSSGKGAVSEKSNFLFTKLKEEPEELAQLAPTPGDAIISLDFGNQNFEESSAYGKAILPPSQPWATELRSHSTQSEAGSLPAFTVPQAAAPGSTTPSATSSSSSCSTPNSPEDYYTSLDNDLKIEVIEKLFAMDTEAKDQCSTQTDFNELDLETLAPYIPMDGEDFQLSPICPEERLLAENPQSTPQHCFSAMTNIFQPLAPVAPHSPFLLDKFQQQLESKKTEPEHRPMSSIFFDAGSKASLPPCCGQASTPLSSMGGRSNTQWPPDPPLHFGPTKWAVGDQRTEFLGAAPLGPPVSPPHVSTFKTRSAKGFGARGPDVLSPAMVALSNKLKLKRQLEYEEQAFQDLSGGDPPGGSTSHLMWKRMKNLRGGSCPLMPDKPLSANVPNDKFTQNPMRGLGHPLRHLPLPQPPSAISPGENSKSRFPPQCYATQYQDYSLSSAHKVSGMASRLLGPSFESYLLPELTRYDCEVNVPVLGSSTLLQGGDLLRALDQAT
smiles,measurement,setting,value
O=[N+]([O-])c1cc(S(=O)(=O)C(F)(F)F)ccc1Oc1cc(F)cc(Cl)c1,pIC50,[1],7.49
O=S1(=O)c2ccc(Oc3cc(F)cc(Cl)c3)c(C(F)(F)F)c2C(O)C1(F)F (stereo unspecified),pEC50,[2],7.00
COC(=O)c1cc(S(=O)(=O)C(F)(F)F)ccc1Oc1cc(F)cc(Cl)c1,pIC50,[1],4.28
O=[N+]([O-])c1cc(S(=O)(=O)C(F)F)ccc1Nc1cc(F)cc(Cl)c1,pIC50,[1],7.80
CS(=O)(=O)c1ccc(Oc2cc(F)cc(Cl)c2)c(Br)c1,pIC50,[1],5.36
O=S1(=O)c2ccc(Oc3cncc(Cl)c3)c(C(F)F)c2C(O)C1(F)F (stereo unspecified),pIC50,[1],6.46
same,pEC50,[2],6.20
N#Cc1cc(F)cc(Oc2ccc(S(=O)(=O)C(F)F)c(C(=O)O)c2C(F)F)c1,pIC50,[1],< 4.00
O=S(=O)(c1ccc(Oc2cc(F)cc(Cl)c2)c(Br)c1)C(F)(F)F,pIC50,[1],6.77
same,pEC50,[2],5.43
CC(=O)NCc1c(S(=O)(=O)C(F)F)ccc(Oc2cc(F)cc(Cl)c2)c1Br,pIC50,[1],4.74
O=[N+]([O-])c1cc(S(=O)(=O)CF)ccc1Nc1cc(F)cc(Cl)c1,pIC50,[1],6.55
O=S(=O)(c1ccc(Oc2cc(F)cc(Cl)c2)c(Br)c1)C(F)F,pIC50,[1],6.74
same,pEC50,[2],5.66
CC(O)c1ccc(Nc2cc(F)cc(Cl)c2)c([N+](=O)[O-])c1 (stereo unspecified),pIC50,[1],4.90
O=S1(=O)c2ccc(Oc3cc(F)cc(Cl)c3)c(Br)c2C(O)C1(F)F (stereo unspecified),pIC50,[1],> 8.30
same,pEC50,[2],7.37
O=S(=O)(c1ccc(Oc2cc(F)cc(Cl)c2)c(Cl)c1)C(F)(F)F,pIC50,[1],6.85
same,pEC50,[2],5.47
N#Cc1cc(F)cc(Oc2ccc3c(c2C(F)F)C(=O)C(F)(F)S3(=O)=O)c1,Drug uptake,Rattus norvegicus,Active
O=[N+]([O-])c1cc(C(F)(F)F)ccc1Nc1cc(F)cc(Cl)c1,pIC50,[1],6.55
NC(=O)c1cc(S(=O)(=O)C(F)(F)F)ccc1Oc1cc(F)cc(Cl)c1,pIC50,[1],4.65
N#Cc1cc(S(=O)(=O)C(F)(F)F)ccc1Oc1cc(F)cc(Cl)c1,pIC50,[1],7.47
same,pEC50,[2],4.94
CS(=O)(=O)c1ccc(Oc2cc(F)cc(C#N)c2)c2c1C(O)C(F)(F)CC2 (racemic),pIC50,[1],5.44
N#Cc1cc(F)cc(Oc2ccc(S(=O)(=O)C(F)F)c3c2CC(F)(F)[C@H]3O)c1,"fraction unbound at 4 h, 10 µM",[3],0.06
same,concentration at 12 h,[4],380 nM
same,CLint scaled at 1 µM,[5],32.2 mL/min/kg
same,"Papp A→B at 1 h, 1 µM",[6],2.84 ×10⁻⁶ cm/s
same,clearance,[7],34.3 mL/min/kg
same,AUC(0-t),[8],7.3 µM·h
same,Vd,[9],7.4 L/kg
same,half-life,[10],7.3 h
same,bioavailability,[11],67%
same,clearance,[12],57.7 mL/min/kg
same,AUC(0-t),[13],0.39 µM·h
same,Vd,[14],5.55 L/kg
same,half-life,[15],5.4 h
same,bioavailability,[16],6%
same,inhibition,Mus musculus [17],Active
same,inhibition,Mus musculus [18],Active
same,Activity,786-0 [19],Active
same,Activity,Mus musculus [20],Non-Toxic
same,Activity,Mus musculus [21],Non-Toxic
same,Activity,Mus musculus [22],Non-Toxic
same,Drug uptake,Mus musculus [23],Active
same,inhibition,786-0 [24],Active
O=S(=O)(c1ccc(Oc2cc(F)cc(Cl)c2)c(CO)c1)C(F)(F)F,pIC50,[1],5.92
O=S1(=O)CCC(O)c2c1ccc(Oc1cc(F)cc(F)c1)c2C(F)F (stereo unspecified),pIC50,[1],5.49
O=S1(=O)CC(O)c2c1ccc(Oc1cc(F)cc(Cl)c1)c2Br (stereo unspecified),pIC50,[1],5.62
same,pEC50,[2],5.14
O=S1(=O)c2ccc(Oc3cc(F)cc(Cl)c3)cc2C(O)C1(F)F (stereo unspecified),pIC50,[1],5.96
O=C(O)c1cc(S(=O)(=O)C(F)(F)F)ccc1Oc1cc(F)cc(Cl)c1,pIC50,[1],4.35
O=S1(=O)c2ccc(Oc3cc(F)cc(Cl)c3)c(C(F)F)c2C(O)C1(F)F (stereo unspecified),pEC50,[2],7.77
NCc1c(S(=O)(=O)C(F)F)ccc(Oc2cc(F)cc(Cl)c2)c1Br,pIC50,[1],6.15
N#Cc1cc(F)cc(Oc2ccc(S(=O)(=O)C(F)(F)F)c3c2CC(F)(F)[C@H]3O)c1,pEC50,[2],> 8.30
CC1(C)C(O)c2c(ccc(Oc3cc(F)cc(Cl)c3)c2Br)S1(=O)=O (stereo unspecified),pIC50,[1],4.71
N#Cc1cncc(Oc2ccc3c(c2C(F)F)C(O)C(F)(F)S3(=O)=O)c1 (stereo unspecified),pIC50,[1],6.85
same,pEC50,[2],6.74
CNS(=O)(=O)c1ccc(Nc2cc(F)cc(Cl)c2)c([N+](=O)[O-])c1,pIC50,[1],5.38
O=[N+]([O-])c1c(Nc2cc(F)cc(Cl)c2)ccc2nonc12,pIC50,[1],6.31
COCc1c(S(=O)(=O)C(F)F)ccc(Oc2cc(F)cc(Cl)c2)c1Cl,pIC50,[1],5.38
Cc1c(Oc2cc(F)cc(Cl)c2)ccc2c1C(O)C(F)(F)S2(=O)=O (stereo unspecified),pIC50,[1],7.70
same,pEC50,[2],6.47
N#Cc1c(Oc2cc(F)cc(Cl)c2)ccc2c1C(O)C(F)(F)S2(=O)=O (stereo unspecified),pIC50,[1],7.31
same,pEC50,[2],5.04
N#Cc1cc(F)cc(Oc2ccc(S(=O)(=O)CF)c3c2CC(F)(F)[C@H]3O)c1,pEC50,[25],7.70
same,"fraction unbound at 4 h, 10 µM",[3],0.11
same,concentration at 12 h,[4],1100 nM
same,CLint scaled at 1 µM,[5],26.9 mL/min/kg
same,"Papp A→B at 1 h, 1 µM",[6],2.73 ×10⁻⁶ cm/s
same,"efflux ratio at 1 h, 1 µM",[26],1.04
same,clearance,[7],32.3 mL/min/kg
same,AUC(0-t),[8],9.46 µM·h
same,Vd,[9],12.6 L/kg
same,half-life,[10],5.5 h
same,bioavailability,[11],91%
same,clearance,[12],57.6 mL/min/kg
same,AUC(0-t),[13],2.14 µM·h
same,Vd,[14],6.15 L/kg
same,half-life,[15],2.9 h
same,bioavailability,[16],32%
same,inhibition,Mus musculus [17],Active
same,inhibition,Mus musculus [18],Active
same,Activity,786-0 [19],Active
same,Activity,Mus musculus [20],Non-Toxic
same,Activity,Mus musculus [21],Non-Toxic
same,Activity,Mus musculus [22],Non-Toxic
same,Drug uptake,Mus musculus [23],Active
same,pEC50,[27],6.74
same,inhibition,786-0 [24],Active
same,pEC50,[2],8.05
O=S(=O)(c1ccc(Oc2cncc(Cl)c2)c2c1[C@H](O)C(F)(F)C2)C(F)F,"fraction unbound at 4 h, 10 µM",[3],0.06
same,concentration at 12 h,[4],560 nM
same,CLint scaled at 1 µM,[5],20.1 mL/min/kg
same,"Papp A→B at 1 h, 1 µM",[6],2.79 ×10⁻⁶ cm/s
same,clearance,[7],58.2 mL/min/kg
same,AUC(0-t),[8],5.44 µM·h
same,Vd,[9],25 L/kg
same,half-life,[10],5.3 h
same,bioavailability,[11],101%
same,inhibition,Mus musculus [17],inactive
same,inhibition,Mus musculus [18],inactive
same,Activity,786-0 [19],inactive
same,Activity,Mus musculus [20],Non-Toxic
same,Activity,Mus musculus [21],Non-Toxic
same,Activity,Mus musculus [22],Non-Toxic
same,Drug uptake,Mus musculus [23],Not Active
same,inhibition,786-0 [24],inactive
O=S(=O)(c1ccc(Oc2cc(F)cc(Cl)c2)c2c1C(O)C(F)(F)C2)C(F)F (racemic),pIC50,[1],> 8.30
same,pEC50,[2],7.70
